Read-outs that look alike come from different tables or passages of the source.
Key:
[1] = test system: human multiple myeloma cell line, OPM-2; assay: Cell viability assay (OPM-2 10 FBS), CellTiter-Glo; type: cell-based
Summary of the method: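 IC50 values come from 4-parameter logistic fits of luminescence signals reflecting cell viability. Treatment lasted 16 h at 37 °C in complete medium with 10% FBS, starting from 3000 cells/well.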

[2] = biological target: recombinant human Mcl-1 (residues 171-327) / Bim interaction (Homo sapiens (Human), UniProt Q07820); assay: biochemical; type: binding; settings: read-out: Mcl-1 HTRF IC50
[3] = read-out: OPM-2 10% FBS IC50 IP, OPM-2 cells, 10% FBS, 16 h, CellTiter-Glo
[4] = TR-FRET, Mcl-1(171-327) / biotin-Bim (51-76)
[5] = Homo sapiens, OPM-2, 16 h, read-out: OPM-2 10% FBS IC50 IP, OPM-2 cells, 10% FBS, 16 h incubation
[6] = 0.1 nM Mcl-1(171-327), 0.05 nM biotin-Bim (51-76)
[7] = read-out: OPM-2 10% FBS IC50 IP, OPM-2 cells, 10% FBS, 16 h incubation
[8] = Homo sapiens, OPM-2, 16 h, read-out: OPM-2 10% FBS IC50 IP, OPM-2 cells, 10% FBS, 16 h, CellTiter-Glo

Chain of recombinant human Mcl-1 (residues 171-327) / Bim interaction (Q07820 171-327): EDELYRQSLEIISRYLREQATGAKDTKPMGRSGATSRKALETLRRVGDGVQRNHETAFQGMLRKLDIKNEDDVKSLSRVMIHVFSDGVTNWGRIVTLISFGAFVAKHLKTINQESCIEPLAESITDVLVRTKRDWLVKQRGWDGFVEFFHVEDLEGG

C[C@@H]1[C@@H](C)C/C=C/[C@@](O)(CC(=O)N2CCCC2)[C@@H]2CC[C@H]2CN2C[C@@]3(CCCc4cc(Cl)ccc43)COc3ccc(cc32)C(=O)NS1(=O)=O [Example 100253, (1S,3′R,6′R,7′S,8′E,11′S,12′R)-6-chloro-7′-hydroxy-11′,12′-dimethyl-7′-(2-oxo-2-(1-pyrrolidinyl)ethyl)-3,4-dihydro-2H,15′H-spiro[naphthalene-1,22′-[20]oxa[13]thia[1,14]diazatetracyclo [14.7.2.0~3,6~.0~19,24~]pentacosa[8,16,18,24]tetraen]-15′-one 13′,13′-dioxide]
IC50 [1, 3]: 544 nM | IC50 [2, 4]: 0.149 nM

C[C@@H]1[C@@H](C)CCC[C@](O)(CC(=S)N(C)C)[C@@H]2CC[C@H]2CN2C[C@@]3(CCCc4cc(Cl)ccc43)COc3ccc(cc32)C(=O)NS1(=O)=O (single isomer, unassigned) [Example 100172]
IC50 [1, 3]: 1570 nM | IC50 [2, 4]: 1.29 nM

CCO[C@]1(CN2CCN(CCOC)CC2)/C=C/C[C@H](C)[C@@H](C)S(=O)(=O)NC(=O)c2ccc3c(c2)N(C[C@@H]2CC[C@H]21)C[C@@]1(CCCc2cc(Cl)ccc21)CO3 [Example 123, (1S,3′R,6′R,7′R,8′E,11′S,12′R)-6-chloro-7′-ethoxy-7′-((4-(2-methoxyethyl)-1-piperazinyl)methyl)-11′,12′-dimethyl-3,4-dihydro-2H,15′H-spiro[naphthalene-1,22′-[20]oxa[13]thia[1,14]diazatetracyclo [14.7.2.0~3,6~.0~19,24~]pentacosa[8,16,18,24]tetraen]-15′-one 13′,13′-dioxide]
IC50 [1, 5]: 228 nM | IC50 [2, 6]: 0.205 nM

CO[C@]1(CN2CCN3CCC(F)(F)C[C@@H]3C2)/C=C/C[C@H](C)[C@@H](C)S(=O)(=O)NC(=O)c2ccc3c(c2)N(C[C@@H]2CC[C@H]21)C[C@@]1(CCCc2cc(Cl)ccc21)CO3 [Example 292]
IC50 [1, 7]: 399 nM | IC50 [2, 6]: 0.356 nM

C[C@@H]1[C@@H](C)CCC[C@@](O)(CCN2CC(F)(F)C2)[C@@H]2CC[C@H]2CN2C[C@@]3(CCCc4cc(Cl)ccc43)COc3ccc(cc32)C(=O)NS1(=O)=O [Example 100093, (1S,3′R,6′R,7′R,11′S,12′R)-6-chloro-7′-(2-(3,3-difluoro-1-azetidinyl)ethyl)-7′-hydroxy-11′,12′-dimethyl-3,4-dihydro-2H,15′H-spiro[naphthalene-1,22′-[20]oxa[13]thia[1,14]diazatetracyclo [14.7.2.0~3,6~.0~19,24~]pentacosa[16,18,24]trien]-15′-one 13′,13′-dioxide]
IC50 [1, 3]: 554 nM | IC50 [2, 4]: 0.291 nM

CO[C@@]1(C)/C=C/C[C@H](C)[C@@H](C)S(=O)(=O)NC(=O)c2ccc3c(c2)N(C[C@@H]2CC[C@H]21)C[C@@]1(CCCc2cc(Cl)ccc21)CO3 [Example 100014, (1S,3′R,6′R,7′S,8′E, 11′S, 12′R)-6-chloro-7′-methoxy-7′,11′,12′-trimethyl-3,4-dihydro-2H,15′H-spiro[naphthalene-1,22′-[20]oxa[13]thia[1,14]diazatetracyclo[14.7.2.0-3,6˜.0˜19,24˜]pentacosa[8,16,18,24]tetraen]-15′-one 13′,13′-dioxide]
IC50 [1, 8]: 330 nM | IC50 [2]: 0.228 nM

CCO[C@]1(CN2CCN(C3COC3)CC2)/C=C/[C@H](C)[C@H](C)CS(=O)(=O)NC(=O)c2ccc3c(c2)N(C[C@@H]2CC[C@H]21)C[C@@]1(CCCc2cc(Cl)ccc21)CO3 [Example 166, (1S,3′R,6′R,7′R,8′E,10′S,11′S)-6-chloro-7′-ethoxy-10′,11′-dimethyl-7′-((4-(3-oxetanyl)-1-piperazinyl)methyl)-3,4-dihydro-2H,15′H-spiro[naphthalene-1,22′-[20]oxa[13]thia[1,14]diazatetracyclo [14.7.2.0~3,6~.0~19,24~]pentacosa[8,16,18,24]tetraen]-15′-one 13′,13′-dioxide]
IC50 [1, 5]: 50 nM | IC50 [2, 6]: 0.107 nM

COCC[C@@H]1[C@@H](C)C/C=C/[C@](C=O)(OC)[C@@H]2CC[C@H]2CN2C[C@@]3(CCCc4cc(Cl)ccc43)COc3ccc(cc32)C(=O)NS1(=O)=O [Example 100520, (1S,3′R,6′R,7′S,8′E,11′S,12′R)-6-chloro-7′-methoxy-12′-(2-methoxyethyl)-11′-methyl-15′-oxo-3,4-dihydro-2H-spiro[naphthalene-1,22′-[20]oxa[13]thia[1,14]diazatetracyclo [14.7.2.0~3,6~.0~19,24~]pentacosa[8,16,18,24]tetraene]-7′-carbaldehyde 13′,13′-dioxide]
IC50 [1, 8]: 1690 nM | IC50 [2, 4]: 0.549 nM

C[C@@H]1[C@@H](C)C/C=C/[C@@](O)(C2SCCCS2)[C@@H]2CC[C@H]2CN2C[C@@]3(CCCc4cc(Cl)ccc43)COc3ccc(cc32)C(=O)NS1(=O)=O [Example 100260, (1S,3′R,6′R,7′S,8′E,11′S,12′R)-6-chloro-7′-(1,3-dithian-2-yl)-7′-hydroxy-11′,12′-dimethyl-3,4-dihydro-2H,15′H-spiro[naphthalene-1,22′-[20]oxa[13]thia[1,14]diazatetracyclo [14.7.2.0~3,6~.0~19,24~]pentacosa[8,16,18,24]tetraen]-15′-one 13′,13′-dioxide]
IC50 [1, 8]: 94 nM | IC50 [2, 4]: 0.408 nM

CO[C@]1(CN2CCN3CCS(=O)(=O)C[C@@H]3C2)/C=C/C[C@H](C)[C@@H](C)S(=O)(=O)NC(=O)c2ccc3c(c2)N(C[C@@H]2CC[C@H]21)C[C@@]1(CCCc2cc(Cl)ccc21)CO3 (single isomer, unassigned) [Example 221]
IC50 [1, 7]: 120 nM | IC50 [2, 6]: 0.069 nM

C[C@@H]1[C@@H](C)C/C=C/[C@@](O)(CC(=O)N(C)C)[C@@H]2CC[C@H]2CN2C[C@@]3(CCCc4cc(Cl)ccc43)COc3ccc(cc32)C(=O)NS1(=O)=O [Example 100078, 2-((1S,3′R,6′R,7′S,8′E,11′S,12′R)-6-chloro-7′-hydroxy-11′,12′-dimethyl-13′,13′-dioxido-15′-oxo-3,4-dihydro-2H-spiro[naphthalene-1,22′-[20]oxa[13]thia[1,14]diazatetracyclo [14.7.2.0~3,6~.0~19,24~]pentacosa[8,16,18,24]tetraen]-7′-yl)-N,N-dimethylacetamide]
IC50 [1, 3]: 2720 nM | IC50 [2, 4]: 0.409 nM

C[C@H](C(=O)O)[C@@]1(O)/C=C/C[C@H](C)[C@@H](C)S(=O)(=O)NC(=O)c2ccc3c(c2)N(C[C@@H]2CC[C@H]21)C[C@@]1(CCCc2cc(Cl)ccc21)CO3 (single isomer, unassigned) [Example 100123]
IC50 [1, 3]: 2660 nM | IC50 [2, 4]: 0.092 nM

CO[C@]1(CN2CCN(CC(C)(C)C)CC2)/C=C/C[C@H](C)[C@@H](C)S(=O)(=O)NC(=O)c2ccc3c(c2)N(C[C@@H]2CC[C@H]21)C[C@@]1(CCCc2cc(Cl)ccc21)CO3 [Example 153, (1S,3′R,6′R,7′R,8′E,11′S,12′R)-6-chloro-7′-((4-(2,2-dimethylpropyl)-1-piperazinyl)methyl)-7′-methoxy-11′,12′-dimethyl-3,4-dihydro-2H,15′H-spiro[naphthalene-1,22′-[20]oxa[13]thia[1,14]diazatetracyclo [14.7.2.0~3,6~.0~19,24~]pentacosa[8,16,18,24]tetraen]-15′-one 13′,13′-dioxide]
IC50 [1, 5]: 10800 nM | IC50 [2, 6]: 0.96 nM

CO[C@H](C)[C@]1(OC)/C=C/C[C@H](C)[C@@H](C)S(=O)(=O)NC(=O)c2ccc3c(c2)N(C[C@@H]2CC[C@H]21)C[C@@]1(CCCc2cc(Cl)ccc21)CO3 [Example 100473, (1S,3′R,6′R,7′S,8′E,11′S,12′R)-6-chloro-7′-methoxy-7′-((1R)-1-methoxyethyl)-11′,12′-dimethyl-3,4-dihydro-2H,15′H-spiro[naphthalene-1,22′-[20]oxa[13]thia[1,14]diazatetracyclo [14.7.2.0~3,6~.0~19,24~]pentacosa[8,16,18,24]tetraen]-15′-one 13′,13′-dioxide]
IC50 [1, 3]: 178 nM | IC50 [2, 4]: 0.974 nM

C[C@@H]1[C@@H](C)C/C=C/[C@@](O)(C#CCCN(C)C)[C@@H]2CC[C@H]2CN2C[C@@]3(CCCc4cc(Cl)ccc43)COc3ccc(cc32)C(=O)NS1(=O)=O [Example 100308, (1S,3′R,6′R,7′S,8′E,11′S,12′R)-6-chloro-7′-(4-(dimethylamino)-1-butyn-1-yl)-7′-hydroxy-11′,12′-dimethyl-3,4-dihydro-2H,15′H-spiro[naphthalene-1,22′-[20]oxa[13]thia[1,14]diazatetracyclo [14.7.2.0~3,6~.0~19,24~]pentacosa[8,16,18,24]tetraen]-15′-one 13′,13′-dioxide]
IC50 [1, 3]: 1170 nM | IC50 [2, 4]: 0.033 nM

CC#C[C@@]1(O)/C=C/C[C@H](C)[C@@H](C)S(=O)(=O)NC(=O)c2ccc3c(c2)N(C[C@@H]2CC[C@H]21)C[C@@]1(CCCc2cc(Cl)ccc21)CO3 [Example 100498, (1S,3′R,6′R,7′R,8′E,11′S,12′R)-6-chloro-7′-hydroxy-11′,12′-dimethyl-7′-(1-propyn-1-yl)-3,4-dihydro-2H,15′H-spiro[naphthalene-1,22′-[20]oxa[13]thia[1,14]diazatetracyclo [14.7.2.0~3,6~.0~19,24~]pentacosa[8,16,18,24]tetraen]-15′-one 13′,13′-dioxide]
IC50 [1, 8]: 1660 nM | IC50 [2]: 0.885 nM

CCO[C@@]1(CN2CCN3CCCC[C@@H]3C2)/C=C/C[C@H](C)[C@@H](C)S(=O)(=O)NC(=O)c2ccc3c(c2)N(C[C@@H]2CC[C@H]21)C[C@@]1(CCCc2cc(Cl)ccc21)CO3 [Example 107, (1S,3′R,6′R,7′S,8′E,11′S,12′R)-6-chloro-7′-ethoxy-11′,12′-dimethyl-7′-((9aR)-octahydro-2H-pyrido[1,2-a]pyrazin-2-ylmethyl)-3,4-dihydro-2H,15′H-spiro[naphthalene-1,22′-[20]oxa[13]thia[1,14]diazatetracyclo [14.7.2.0~3,6~.0~19,24~]pentacosa[8,16,18,24]tetraen]-15′-one 13′,13′-dioxide]
IC50 [1, 5]: 872 nM | IC50 [2, 6]: 1.14 nM
